Data as given in publication PMC8063472, “Pharmacokinetics of five phthalides in volatile oil of Ligusticum sinense Oliv.cv. Chaxiong, and comparison study on physicochemistry and pharmacokinetics after being formulated into solid dispersion and inclusion compound” (BMC Complementary Medicine and Therapies, 2021).
Like-named read-outs stand apart in the source and are kept apart here.

Legend:
[1] = Pharmacokinetic study in rats (plasma LC-MS/MS) after iv or oral VOC, oral VOC-P188 or oral VOC-β-CD; format: in vivo, Sprague Dawley rats; settings: for AUC(0-t) / MRT last / Tmax / half-life / Cmax / bioavailability: male, Sprague-Dawley, rat, plasma; for MRT last: read-out: MRT0-t; for half-life: read-out: t1/2β (converted); for bioavailability: VOC-P188 and VOC-β-CD po, read-out: bioavailability in the two preparations
Procedure: The intravenous injection solution was prepared by dissolving 0.15 g of VOC in 25 ml water containing 3 ml 10% Tween-80 as solubilizer. The oral solution was prepared by dissolving 0.35 g of VOC in 25 ml normal saline containing 3 ml 10% Tween-80 as solubilizer. The VOC-P188 solution was prepared by mixing VOC-P188 5 g in 25 ml water with magnetic stirring apparatus. The VOC-β-CD solution was prepared by mixing VOC-β-CD 3.5 g in 25 ml water with magnetic stirring apparatus.
Twenty-four male SD rats (220 ~ 250 g) were randomly divided into four groups, 6 in each group. After fasting for 12 h before administration, the rats in group 1 were given VOC by tail vein injection at a dose of 30 mg/Kg, the rats at second group were oral administration of VOC solution, the dosage was 120 mg/Kg based on the mass of VOC. The rats at groups 3 and 4 were given VOC-P188 and VOC-β-CD, respectively.
Blood samples (0.3 ml) were collected from the eyes at 0.08, 0.17, 0.33, 0.5, 1, 1.5, 2, 4, 6, 8, 12 and 24 h after administration, and they were immediately transferred into a heparinized Eppendorf (EP) tube. The blood samples were then centrifuged at 13,000 r/min for 10 min. The plasma samples were stored at − 80 °C for later analysis.
The thawed plasma sample (0.1 ml) was transferred to another EP tube and 20 μl of DL, 50 μl of 2% formic acid and 500 μl of methanol were added. The mixture was vortexed for 2 min, and centrifuged at 13000 r/min for 10 min. The supernatant was transferred into a clean EP tube, and evaporated to dryness under a stream of nitrogen at 40 °C. The residue was dissolved in 100 μl of methanol. The supernatant was injected into the HPLC system.
An HPLC system consisting of a solvent-delivery system LC-30 AD, an autosampler SIL-30 AC, a column oven CTO-30 AC, a solvent degasser DGU-20A3, and a controller CBM-20A from […] was used in the study. Separation was conducted using a Shim-pack GIST C18-AQ HP column (2.1 mm × 100 mm, 3 μm). The column oven was maintained at 35 °C. The mobile phase was 0.1% formic acid in water as mobile phase A and acetonitrile as mobile phase B. The linear gradient elution program was set according to preliminary tests: 45–60% B, 0–2 min; 60–65% B, 2–6 min; 65–95% B, 6–7 min; 95–45% B, 7–9 min and 45% B, 9–10 min, with the flow rate kept at 0.3 ml/min. The injection volume was set at 2 μl.
The MS analysis was performed on a 4500 QTRAP™ system from Applied Biosystems (AB Sciex) equipped with Turbo V sources and Turbo Ion Spray™ (TIS) interface. Electrospray ionization was performed in positive mode. Ion source: electrospray ion source (ESI source); detection method: multiple reaction monitoring (MRM); ion source temperature: 500 °C; desolvent gas temperature: 550 °C; desolvent gas flow rate: 800 l/h. The detection ion pair, retention time, declustering voltage and collision energy of each index component and internal standard were shown in Table 2.
The plasma SA, NBP, NOL, ZL and BP concentrations were evaluated using the equation from the standard curves that were run with each batch of samples. The plasma concentration-time data were analyzed with the Drug and Statistics 2.0 software package to determine the pharmacokinetic parameters. The observed Cmax value was obtained from the observed data and the observed AUC0 → t value was calculated using the trapezoidal rule. The absolute bioavailability of VOC and the relative bioavailability of VOC-P188 and VOC-β-CD were calculated, the formula for calculating absolute bioavailability (F1) and relative bioavailability (F2): F1=AUCpo×Div/AUCiv×Dpo×100% […]
Where AUC is the area under the temporal curve of blood drug concentration (μg/l*h), D is administration dosage (mg/kg); the subscripts iv and po are injection and oral administration, respectively; the subscript R is reference drug (VOC); the subscript T is solid dispersion or inclusion compound.

[2] = In vitro dissolution, paddle method, pH 5.8 phosphate buffer; format: physicochemical
Procedure: Dissolution studies were performed according to the USP XXI method 2 (paddle method) at 37 ± 0.5 °C at 50 rpm. 900 ml of dissolution medium were used as standard volume. Dissolution samples (1 mL) were withdrawn at the specified times of 15, 30, 45, 60, 90, 120 min from Dissolution cups, and 1 ml of dissolution medium was replenished in the same time. Samples were filtered through a 0.45 μm nylon disc filter and were measured absorbance at 230 nm by HPLC [11].

[3] = Stability test of VOC-P188 and VOC-β-CD (temperature, illumination); format: physicochemical
[4] = design: method as in PMID 18039808; settings: cited from earlier work
[5] = VOC iv 30 mg/kg, rat plasma, n = 6
[6] = VOC po 120 mg/kg, rat plasma, n = 6
[7] = VOC-P188 solid dispersion po vs VOC po, rats
[8] = VOC-P188 solid dispersion po, rat plasma, n = 6
[9] = VOC-β-CD inclusion compound po vs VOC po, rats
[10] = VOC-β-CD inclusion compound po, rat plasma, n = 6
[11] = iv, 30 mg/kg, VOC iv 30 mg/kg, rat plasma, n = 6
[12] = iv, 30 mg/kg, VOC iv 30 mg/kg, rat plasma, n = 6, read-out: Tmax
[13] = iv, 30 mg/kg, VOC iv (tail vein) 30 mg/kg, rat plasma, n = 6
[14] = po, 120 mg/kg, VOC po 120 mg/kg, rat plasma, n = 6
[15] = po, 120 mg/kg, VOC po 120 mg/kg, rat plasma, n = 6, read-out: Tmax
[16] = po, VOC-P188 solid dispersion po, rat plasma, n = 6
[17] = po, VOC-P188 solid dispersion po, rat plasma, n = 6, read-out: Tmax
[18] = po, VOC-β-CD inclusion compound po, rat plasma, n = 6
[19] = po, VOC-β-CD inclusion compound po, rat plasma, n = 6, read-out: Tmax

Compound	t1/2α [1, 5] [h]	t1/2α [1, 6] [h]	F2 (relative bioavailability) [1, 7] [%]	t1/2α [1, 8]	F2 (relative bioavailability) [1, 9] [%]	t1/2α [1, 10]	AUC(0-t) [1, 11] [ng·h/mL]	MRT last [1, 11] [h]	Tmax [1, 12] [h]	half-life [1, 11] [h]	Cmax [1, 13] [ng/mL]	AUC(0-t) [1, 14] [ng·h/mL]	Cmax [1, 14] [ng/mL]	MRT last [1, 14] [h]	Tmax [1, 15] [h]	half-life [1, 14] [h]	bioavailability ([1]; po, rats) [%]	AUC(0-t) [1, 16] [ng·h/mL]	Cmax [1, 16] [ng/mL]	MRT last [1, 16] [h]	also measured
CCC/C=C1\OC(=O)c2ccccc21 [BP]	0.04 ± 0.04	1.38 ± 1.02	251.50	2.72 ± 3.66 h	363.55	7.02 ± 5.42^* h	198 ± 42.8	1.28 ± 0.32	0.083	0.7 ± 0.54	373 ± 155	99.1 ± 23.3	43.7 ± 10.9	3.46 ± 1.08	0.5 ± 0.28	3.74 ± 3.26	< 50	249 ± 24.5	40.3 ± 8.37	7.42 ± 0.6	Tmax ([1]; po, 120 mg/kg, after oral administration of VOC, rats, read-out: Tmax (time of peak concentration)): < 0.5 h; Tmax [1, 17]: 0.42 ± 0.33 h; half-life [1, 16]: 8.64 ± 2.44 h; AUC(0-t) [1, 18]: 298 ± 31.7 ng·h/mL; Cmax [1, 18]: 38.8 ± 16 ng/mL; MRT last [1, 18]: 8.45 ± 0.77 h; Tmax [1, 19]: 0.35 ± 0.19 h; half-life [1, 18]: 19.6 ± 5.63 h; solubility in pH 5.8 PBS [2]: poor solubility
CCC/C=C1\OC(=O)C2=C1CCC=C2 [ZL, Z-ligustilide]	0.04 ± 0.04	0.82 ± 0.51	163.35	4.40 ± 4.10^* h	224.54	4.72 ± 1.92^* h	1240 ± 435	0.45 ± 0.1	0.083	0.55 ± 0.66	4530 ± 1450	504 ± 53.3	214 ± 76	3.94 ± 0.54	0.22 ± 0.09	5.48 ± 2.61	< 50	801 ± 199	320 ± 286	5.95 ± 0.49	Tmax [1, 17]: 0.49 ± 0.42 h; half-life [1, 16]: 8.91 ± 5.25 h; AUC(0-t) [1, 18]: 883 ± 211 ng·h/mL; Cmax [1, 18]: 145 ± 24.8 ng/mL; MRT last [1, 18]: 7.31 ± 0.33 h; Tmax [1, 19]: 0.4 ± 0.17 h; half-life [1, 18]: 5.96 ± 2.9 h; content decreased by ([3]; in VOC-P188, 60 °C for 10 days): 38.9%; content decreased by ([3]; in VOC-β-CD, 60 °C for 10 days): 20.3%; solubility in pH 5.8 PBS [2]: poor solubility; Oral bioavailability [4]: 2.6%
